Results published in patent publication US20200054563A1, “PHARMACEUTICAL COMPOSITION FOR IN VIVO DELIVERY, METHOD OF PREPARATION OF A SUBSTANTIALLY WATER-INSOLUBLE PHARMACOLOGICALLY ACTIVE AGENT FOR IN VIVO DELIVERY, AND METHOD OF TREATING DISEASE” (ZY Therapeutics Inc., priority 2017, published 2020).

Test: Stability of the drug substance during the homogenization process (HPLC spectra)
Format: physicochemical
Details: nanosuspension prepared at pH 7.2 without pH change; additional peak in HPLC spectra (FIG. 2C), in some cases
Protocol: The formulation was filtered through a 0.22 μm membrane for sterilization. The Paclitaxel content before and after filtration was measured by HPLC. […] The split peak in HPLC may indicate the degradation of the drug during the process.

With CC(=O)O[C@H]1C(=O)[C@@]2(C)[C@H]([C@H](OC(=O)c3ccccc3)[C@]3(O)C[C@H](OC(=O)[C@H](O)[C@@H](NC(=O)c4ccccc4)c4ccccc4)C(C)=C1C3(C)C)[C@]1(OC(C)=O)CO[C@@H]1C[C@@H]2O [Paclitaxel] the “stability of the drug substance during the process” value was “not stable during the process”.
